Patent publication US6812034B2, “Fetuin-MGP-mineral complex in serum assayed to determine calcification risk” (The Regents of the University of California, priority 2000, dated 2004)
Entries after “also recorded” stand apart in the source; their conditions may differ.

Assays:
Type in all cases: in vivo, rat
[1] = weight, tibia length and serum calcium and phosphate in warfarin-treated rats; conditions: for mg Ca dl serum / mg P dl serum: 4 weeks
Source text: This procedure induces artery calcification within 2 weeks without the presence of hypercalcemia.

[2] = tested on: aorta calcification in rats treated with vitamin D plus warfarin; experiment: von Kossa staining for calcification in rats treated with vitamin D plus warfarin; conditions: for Histology Score Observer #1 x ± S.D. / Histology Score Observer #2 x ± S.D.: 84 h; for dose that completely eliminated von Kossa staining for mineral in the abdominal aorta: 84 h after first vitamin D
Protocol: (§1) For measurement of mineral accumulation in arteries, each tissue was removed within 30 minutes of death and immediately frozen. Tissues were subsequently washed extensively with buffer and extracted with 1 ml of 10% formic acid for 24 h at room temperature, as described. Calcium levels in serum were determined colorimetrically using cresolphthalein complexone (Sigma) and phosphate levels in serum and in acid tissue extracts were determined calorimetrically as described (Zhu et al. (1994) Cardiology, 85: 370-377). Tissue sectioning and staining were carried out by Biomedical Testing Services, Inc., (San Diego, Calif.).
Male Sprague Dawley rats were fed ad libitum with rodent diet 5001 (Purina Mills Inc., St. Louis, Mo.), a diet that is 0.67% phosphorus and 0.95% calcium by weight. This diet contains 500 μg per kg of phylloquinone and has no added menadione. In all experiments, animals were killed by exsanguination while under metofane anesthetic, and selected tissues were removed immediately and fixed in 10% buffered formalin or frozen at −20° C. for later studies. All animal experiments were approved by the UCSD animal subjects committee.

[3] = tested on: warfarin-induced artery calcification; experiment: artery calcification in rats treated with warfarin for 2 or 4 weeks; conditions: both carotid arteries
Protocol: as §1, with “Tissues” for “For measurement of mineral accumulation in arteries, each tissue was removed within 30 minutes of death and immediately frozen. Tissues”, “Calif.). The effect of bisphosphonates on artery calcification was also examined in rats treated with warfarin alone using procedures which have been described elsewhere (Price et al. (1998) Arterioscler. Thromb. Vasc. Biol. 18: 1400-1407).” for “Calif.).”

[4] = serum levels of calcium and phosphate in rats treated with vitamin D plus warfarin; conditions: 84 h; for reduction of serum phosphate: two highest doses
Protocol: as §1, with “Calif.). […]” for “Calif.).”

[5] = serum levels of calcium, phosphate, MGP and BGP after subcutaneous bisphosphonate
Protocol: Rats were fed rodent diet 5001 (Purina Mills Inc., St. […] Etidronate was dissolved with 0.15 M NaCl, titrated to pH 7.4 with dilute NaOH, and administered subcutaneously to forty-day-old male rats. Control animals received injections of 0.15 M NaCl only. […] At the times indicated in FIG. 1, each rat was anesthetized with metofane and a 400 μl sample of blood was withdrawn from the jugular vein. Blood samples were allowed to clot for 15 min at room temperature and serum was obtained after centrifugation in a clinical centrifuge and then frozen rapidly on dry ice and stored at -70° C. until later analysis. The same procedure was followed for the second time course experiment (FIG. 10), with the difference that the etidronate dose was increased to 32 mg per 100 g body weight. […] Two hours later, all rats were injected with etidronate at a dose of 8 mg/100 g (t=0), and 400 μl of blood were removed from each animal at the indicated times for biochemical analyses. […] In neither control group could we detect a significant change in serum levels of calcium, phosphate, or MGP at any time point. […] Rice et al. (1994) J. Bone Min. Res. 9: 567-576). Calcium levels in serum and other samples were determined colorimetrically using cresolphthalein complexone (Sigma) and phosphate levels in serum, effluent fractions, and other samples were determined calorimetrically as described (Chen et al. (1956) Anal. Chem. 28(11): 1756-1758). For determination of ionic calcium, freshly obtained blood samples were immediately placed into a 2.5 ml gold top vacutainer tube to avoid out gassing of CO2 and the associated shift in pH. […] Electrophoresis was carried out using 4 to 20% polyacrylamide gels (Novex, Inc., San Diego, Calif.) run in Tris-glycine buffer containing SDS. Protein sequencing was carried out on bands transferred to PVDF membranes using a Procise 494 Sequencer (ABI division, PE Biosystems, Foster City, Calif.).

[6] = tested on: vitamin D-induced artery calcification; experiment: mineral phosphate accumulation in acid demineralization extracts of thoracic aorta and carotid arteries, vitamin D plus warfarin; conditions: for Artery Calcification Relative potency: relative to etidronate = 1
Protocol: Tissues were subsequently washed extensively with buffer and extracted with 1 ml of 10% formic acid for 24 h at room temperature, as described. Calcium levels in serum were determined colorimetrically using cresolphthalein complexone (Sigma) and phosphate levels in serum and in acid tissue extracts were determined calorimetrically as described (Zhu et al. (1994) Cardiology, 85: 370-377). Tissue sectioning and staining were carried out by Biomedical Testing Services, Inc., (San Diego, Calif.). The effect of bisphosphonates on artery calcification was first examined in rats in which artery calcification was induced by treatment with warfarin plus high doses of vitamin D. […] All animals were killed by exsanguination at 96 h. […] All animals were killed by exsanguination at 96 h after the first vitamin D dose. […] All animals were killed by exsanguination 96 h after the first vitamin D injection.

[7] = Sephacryl S300 gel filtration of serum; conditions: serum 6 h after etidronate, concurrent warfarin
Protocol: The serum mineral complex was characterized by gel filtration using 25 ml columns of Sephacryl S-300 HR which were prepared in disposable plastic pipets and were equilibrated with 20 mM HEPES pH 7.4, 0.15 M NaCl and 10 mM CaCl2 at room temperature. Serum was obtained from rats 6 h after administration of etidronate at a dose of 8 mg/100 g, and 1 ml aliquots were immediately applied to the Sephacryl column. Fractions of 0.5 ml were then collected and analyzed to determine the level of phosphate and MGP (see below).

[8] = 0.025 mg P/kg/day plus warfarin
[9] = 0.0004 mg P/kg/day sc, score 0-5
[10] = 0.002 mg P/kg/day sc, score 0-5
[11] = 0.010 mg P/kg/day sc, score 0-5
[12] = 0.050 mg P/kg/day sc, score 0-5
[13] = 0.00036 mg P/kg/day sc, score 0-5 (5 most calcified)
[14] = 0.0018 mg P/kg/day sc, score 0-5
[15] = 0.009 mg P/kg/day sc, score 0-5
[16] = 0.045 mg P/kg/day sc, score 0-5
[17] = 15.4 mg warfarin per 100 g 2 h before 8 mg/100 g etidronate

Compound: NCCCC(O)(P(=O)(O)O)P(=O)(O)O [Alendronate, (4-amino-1-hydroxybutylidene)bis-phosphonate]
- mg Ca dl serum [1, 8]: 10.0 ± 0.1 mg/dL
- mg P dl serum [1, 8]: 10.0 ± 0.1 mg/dL
- mg Ca dl serum ([1]; 0.25 mg P/kg/day plus warfarin): 10.8 ± 0.1 mg/dL
- mg P dl serum ([1]; 0.25 mg P/kg/day plus warfarin): 10.9 ± 0.7 mg/dL
- effect on bone growth or weight gain ([1]; 0.025 and 0.25 mg P/kg/day, warfarin 4 weeks): without affecting bone growth or weight gain
- Histology Score Observer #1 x ± S.D. [2, 9]: 2.8 ± 1.0
- Histology Score Observer #2 x ± S.D. [2, 9]: 3.3 ± 1.3
- Histology Score Observer #1 x ± S.D. [2, 10]: 2.5 ± 0.6
- Histology Score Observer #2 x ± S.D. [2, 10]: 2.0 ± 0.8
- Histology Score Observer #1 x ± S.D. [2, 11]: 2.0 ± 1.8
- Histology Score Observer #2 x ± S.D. [2, 11]: 2.5 ± 1.3
- Histology Score Observer #1 x ± S.D. [2, 12]: 0.8 ± 0.5
- Histology Score Observer #2 x ± S.D. [2, 12]: 0.4 ± 0.5
- Histology Score Observer #1 x ± S.D. ([2]; 0.25 mg P/kg/day sc, score 0-5): 0.0 ± 0.0
- Histology Score Observer #2 x ± S.D. ([2]; 0.25 mg P/kg/day sc, score 0-5): 0.0 ± 0.0
- dose that completely eliminated von Kossa staining for mineral in the abdominal aorta [2]: 0.25 mg P/kg/day
- nmol PO4 Carotid [3, 8]: 374.0 ± 217.4 nmol
- nmol PO4 Carotid ([3]; 0.25 mg P/kg/day plus warfarin): 63.7 ± 43.1 nmol
- Serum Ca ([4]; 0.0004 mg P/kg/day): 13.3 ± 0.7 mg/dL
- Serum P ([4]; 0.0004 mg P/kg/day): 10.8 ± 1.2 mg/dL
- Serum P ([4]; 0.002 mg P/kg/day): 10.2 ± 0.6 mg/dL
- Serum Ca ([4]; 0.01 mg P/kg/day): 15.9 ± 0.4 mg/dL
- Serum P ([4]; 0.01 mg P/kg/day): 10.0 ± 0.9 mg/dL
- Serum P ([4]; 0.05 mg P/kg/day): 9.9 ± 0.5 mg/dL
- Serum P ([4]; 0.25 mg P/kg/day): 9.5 ± 0.7 mg/dL
- reduction of serum phosphate [4]: about 16%
- effect on serum calcium, phosphate and MGP levels ([5]; 4 mg/100 g dose, 1, 2, 6, 12 and 24 h, data not shown): no effect

Compound: CCCCCN(C)CCC(O)(P(=O)(O)O)P(=O)(O)O [Ibandronate, (1-hydroxy-3-(methylpentylamino)propylidene)bis-phosphonate]
- Histology Score Observer #1 x ± S.D. [2, 13]: 1.0 ± 0.8
- Histology Score Observer #2 x ± S.D. [2, 13]: 1.0 ± 0.8
- Histology Score Observer #1 x ± S.D. [2, 14]: 0.0 ± 0.0
- Histology Score Observer #2 x ± S.D. [2, 14]: 0.0 ± 0.0
- Histology Score Observer #1 x ± S.D. [2, 15]: 0.0 ± 0.0
- Histology Score Observer #2 x ± S.D. [2, 15]: 0.0 ± 0.0
- Histology Score Observer #1 x ± S.D. [2, 16]: 0.0 ± 0.0
- Histology Score Observer #2 x ± S.D. [2, 16]: 0.0 ± 0.0
- dose that completely eliminated von Kossa staining for mineral in the abdominal aorta [2]: ≥ 0.0018 mg P/kg/day
- Serum Ca ([4]; 0.00036 mg P/kg/day): 13.8 ± 0.6 mg/dL
- Serum P ([4]; 0.00036 mg P/kg/day): 9.9 ± 0.5 mg/dL
- Serum Ca ([4]; 0.0018 mg P/kg/day): 15.5 ± 0.9 mg/dL
- Serum P ([4]; 0.0018 mg P/kg/day): 10.3 ± 0.6 mg/dL
- Serum Ca ([4]; 0.009 mg P/kg/day): 14.9 ± 0.6 mg/dL
- Serum P ([4]; 0.009 mg P/kg/day): 10.4 ± 0.7 mg/dL
- Serum Ca ([4]; 0.045 mg P/kg/day): 15.4 ± 0.3 mg/dL
- Serum P ([4]; 0.045 mg P/kg/day): 9.9 ± 0.4 mg/dL
- reduction of serum phosphate [4]: ~11%
- dose required to reduce the extent of mineralization by half in the thoracic aorta ([6]; 84 h, FIG. 3): 0.0002 mg P/kg/day
- dose required to reduce the extent of mineralization by half in the carotid artery ([6]; 84 h, FIG. 4): 0.00018 mg P/kg/day
- Artery Calcification Dose for 50% inhibition ([6]; daily subcutaneous dose, vitamin D-induced artery calcification, male rats initially 200 g): 0.00019 mg P/kg/day
- subcutaneous dose required for 50% inhibition of artery calcification ([6]; rat, FIGS. 3 and 4): 0.2 μg P/kg/day
- Artery Calcification Relative potency [6]: 10500
- Artery Calcification Relative potency ([6]; listed as ibandronate): 10,500

Compound: CC(=O)CC(c1ccccc1)c1c(O)c2ccccc2oc1=O (centres unmarked) [warfarin]
- MGP levels in the high molecular weight position, of the level in vitamin K-replete, etidronate treated rats [7]: 5%
- phosphate levels in the high molecular weight, excluded volume position vs vitamin K-replete, etidronate treated rats [7]: comparable
- effect on the increase in serum MGP following etidronate [5, 17]: prevents the increase in serum MGP; also recorded: blocked the increase in serum MGP
- effect on the time course of the elevation in serum calcium and phosphate following etidronate [5, 17]: did not affect
- effect on serum levels of MGP ([5]; animals which did not receive etidronate): no effect
